Read-outs that look alike come from different tables or passages of the source.
What was measured:
[1] = Deactivation of biocides / biocide residual in Galveston seawater; type: physicochemical
Description: The pH of fresh water or seawater was adjusted and desired concentrations of biocides were added. The concentration of biocides in the water was measured periodically. Such monitoring provided information on the deactivation rate of biocides. To monitor the concentration of THPS and glutaraldehyde a LaMotte kit and a Glutatect kit were used, respectively. The LaMotte Company supplies the LaMotte kit. Alden Scientific manufactures the Glutatect kit. After the complete deactivation of biocide, the water was tested for aquatic toxicity.
Galveston seawater was treated with NaOH solution and with blends of NaOH and chemicals separately to raise the pH to 9-10.25. 12-100 PPM of 50% glutaraldehyde was added to each aliquot of pH-adjusted water. The treated water was left at room temperature. The concentration of glutaraldehyde was monitored for 9-20 days, using Glutatect kit. In another experiment, 100 PPM of 75% THPS was added to Galveston seawater following pH adjustment with NaOH. THPS concentration was monitored using a LaMotte Kit.

[2] = test system: Sulfate Reducing Bacteria (SRB); assay: Evaluation of biocides in pH adjusted medium containing SRB, with coupons; type: cell-based; conditions: for Log of Bacterial Cells/ml: SRB medium
Description: (§1) In these experiments, SRB or FAAPB cultures were treated with various concentrations of biocides, after raising the pH to 9.8-10.00. The bacterial growth in the treated samples was estimated by the serial dilution method. The visual appearance of coupons in treated and untreated samples was recorded. An aldehyde and phosphonium quat were used for biocides.

SRB [3] = assay: Time kill study of special blends, SRB culture; type: cell-based; conditions: 50 PPM (pH ~7)
Description: (§2) More than thirty special blends containing NaOH, oxygen scavenger and scale inhibitor were made. Time kill studies were conducted to evaluate the effect of these special blends on bacterial growth. For the time kill studies cultures of SRB and anaerobic bacteria as well as filtered Galveston seawater were used. Galveston seawater was filtered through 50 μm filter. The time kill studies were basically the same as in the raised pH studies described earlier. The only difference was that in these studies, the pH was raised by the special blends and natural seawater was included in addition to bacterial cultures. Usually, 1,500 to 3,000 PPM of the special blends were used to raise the pH to 9.6-9.8. In some experiments, the seawater was treated only with NaOH or oxygen scavenger for comparison purposes. A piece of mild carbon steel coupon (1″×0.3″) was inserted into the treated water to monitor MIC and corrosion in all of the experiments.
(§3) The bacterial growth was monitored for 20 days. The monitoring of coupons in the treated samples continued for weeks to months. The products that inhibited the bacterial growth and kept the coupons clean were selected. These selected products were re-evaluated using the bacterial cultures and the filtered seawater.

anaerobic bacteria = assay: Time kill study of special blends, anaerobic bacteria culture; type: cell-based; conditions: 50 PPM (pH ~7)
Description: as §2, §3

SRB [4] = assay: Effect of special blends on SRB growth in natural (Galveston) seawater; type: cell-based; conditions: 25 PPM
Description: as §2, §3

[5] = test system: sulfate reducting bacteria (SRB); assay: Time kill study of SRB cultures at raised pH (NaOH), serial dilution; type: cell-based; conditions: 200 PPM, combined with high pH
Description: Cultures (in API media) of sulfate reducting bacteria (SRB) and facultative anaerobic acid producing bacteria (FAAPB) were treated separately with dilute NaOH solution to raise the pH of the culture to 9.8-10.00. The level of bacterial growth was estimated by the serial dilution method. In some experiments oxygen scavenger (ammonium bisulfite) was also included to see if it has any effect on bacterial growth. No coupons were used in these experiments.
as §1

[6] = anaerobic condition, cited from earlier work
M. Beryllina = assay: Static renewal toxicity test of treated seawater; type: in vivo; conditions: 150 PPM of THPS
Description: (§4) Three of the most promising special blends were tested 249C, 246C, and 283C. Galveston seawater was treated separately with 249C, 246C and 283C at 3,000 PPM, 2,000 PPM and 1,450 PPM respectively. The treated water was then subjected to a static renewal toxicity test (using Mysid and Menidid species). The EPA requires this toxicity test for water discharged into the Gulf of Mexico.

M. Bahia = assay: Static renewal toxicity test of treated seawater; type: in vivo; conditions: 150 PPM of THPS
Description: as §4

[7] = Sea Water without pH adjustment, 100 PPM added

Compound	PPM Biocide after 9 Days ([1]; Sea Water pH 10, 100 PPM added)	PPM Biocide at 0 Hr ([1]; Sea Water pH 10, 100 PPM added)	PPM Biocide, 2 Days ([1]; Sea Water pH 10, 100 PPM added)	PPM Biocide after 9 Days [1, 7]	PPM Biocide at 0 Hr [1, 7]	PPM Biocide, 2 Days [1, 7]	Log of Bacterial Cells/ml, SRB (SRB [3])	Log of Bacterial Cells/ml, Anaerobic (anaerobic bacteria)	Log of Bacterial Cells/ml (SRB [4])	other results
O=CCCCC=O [Glutaraldehyde, glutaraldehyde]	10-20 PPM	˜40 PPM	20-40 PPM	20-40 PPM	˜40 PPM	20-40 PPM	0-1 Log of Bacterial Cells/ml	≧3 Log of Bacterial Cells/ml	1 Log of Bacterial Cells/ml	biocide residual ([1]; seawater treated with special blends, after 5-10 days): below 5 PPM; Log of Bacterial Cells/ml ([2]; Concentration 12.5): 0 Log of Bacterial Cells/ml; Log of Bacterial Cells/ml ([2]; Concentration 25): 0-1 Log of Bacterial Cells/ml; Log of Bacterial Cells/ml ([2]; Concentration 75): 0 Log of Bacterial Cells/ml; Log of Bacterial Cells/ml ([2]; Concentration 150): 0 Log of Bacterial Cells/ml; concentration sufficient to inhibit planktonic as well as sessile bacterial growths ([2]; water with pH adjusted to 10): 10-12 PPM
N.O=S(O)O [NH4HSO3, ammonium bisulfite]	–	–	–	–	–	–	–	–	–	Log of SRB Cells/mL ([5]; Experiment 1 (7 Days)): 2 Log of SRB Cells/mL; Log of SRB Cells/mL ([5]; Experiment 2 (7 Days)): 2 Log of SRB Cells/mL
tetrakis hydroxymethyl phosphonium sulfate [THPS]	14 PPM	136 PPM	58 PPM	68 PPM	132 PPM	104 PPM	0-1 Log of Bacterial Cells/ml	≧3 Log of Bacterial Cells/ml	1 Log of Bacterial Cells/ml	half life ([6]; pH 7): 72 days; half life ([6]; pH 9): 7 days; LOEC (M. Beryllina): 24.6%; NOEC (M. Beryllina): 12.0%; LOEC (M. Bahia): <9.6/9.6%; NOEC (M. Bahia): <9.6/9.6%; Log of Bacterial Cells/ml ([2]; Concentration 18.75): 0-3 Log of Bacterial Cells/ml; Log of Bacterial Cells/ml ([2]; Concentration 37.5): 0-1 Log of Bacterial Cells/ml; Log of Bacterial Cells/ml ([2]; Concentration 112.5): 0 Log of Bacterial Cells/ml
